Data from patent publication US20260232767A1, “INTERLEUKIN-23 RECEPTOR ANTAGONIST PEPTIDES FOR USE IN THE TREATMENT OF PSORIASIS” (Janssen Pharmaceutica NV, priority 2023, published 2026).

System: subjects with moderate-to-severe plaque psoriasis
Assay: Safety, adverse events, Example 2 through Week 56
Assay type: in vivo, human
Excerpt: The LTE safety analysis was based on randomized participants in Example who entered the present long-term extension study and received at least one dose of study intervention (including a partial dose) during the study period.

[1] = 100 mg BID, Week 16 through Week 56
[2] = 100 mg BID, LTE Safety analysis set

## CC(=O)NCCCC[C@@H]1NC(=O)[C@H](Cc2c[nH]c3c(C)cccc23)NC(=O)[C@H]([C@@H](C)O)NC(=O)[C@H](CC(N)=O)NC(=O)[C@@H](NC(C)=O)C(C)(C)SSC(C)(C)[C@@H](C(=O)N[C@@H](Cc2ccc(OCCN)cc2)C(=O)N[C@@H](Cc2ccc3ccccc3c2)C(=O)NC2(C(=O)N[C@@H](CCC(=O)O)C(=O)N[C@@H](CC(N)=O)C(=O)N[C@@H](Cc3cccnc3)C(=O)N(C)CC(N)=O)CCOCC2)NC1=O [IL-23 receptor antagonist peptide, Ac-[Pen]*-N-T-[W(7-Me)]-[Lys(Ac)]-[Pen]*-Phe[4-(2-aminoethoxy)]-[2-Nal]-[THP]-E-N-[3-Pal]-Sarc-NH2 (*[Pen]-[Pen]* formdisulfidebond)]
50 mg QD, Week 16-56
  Subjects with AE leading to discontinuation: Insomnia: 0
  Subjects with AE leading to discontinuation: Investigations: 0
  Subjects with AE leading to discontinuation: Nervous system disorders: 0
  Subjects with AE leading to discontinuation: Proctalgia: 0
  Subjects with AE leading to discontinuation: Psoriasis: 0
  Subjects with AE leading to discontinuation: Psychiatric disorders: 0
  Subjects with AE leading to discontinuation: Skin and subcutaneous tissue disorders: 0
  Subjects with AE leading to discontinuation: Vertigo: 0
  Subjects with AE leading to discontinuation: Vomiting: 0
  Subjects with COVID-19 associated AE of interest: SARS-CoV-2 test positive: 0
  Subjects with treatment-emergent AE: Headache: 0
  Subjects with treatment-emergent AE: Meniscus injury: 0
  Subjects with treatment-emergent AE: Nervous system disorders: 0
  Subjects with treatment-emergent AE: Vomiting: 0
  Subjects with treatment-emergent serious AE: Cerebrovascular accident: 0
  Subjects with treatment-emergent serious AE: Diverticulitis: 0
  Subjects with treatment-emergent serious AE: Infections and infestations: 0
  Subjects with treatment-emergent serious AE: Injury, poisoning and procedural complications: 0
  Subjects with treatment-emergent serious AE: Intervertebral disc protrusion: 0
  Subjects with treatment-emergent serious AE: Ligament injury: 0
  Subjects with treatment-emergent serious AE: Neoplasms benign, malignant and unspecified (incl cysts and polyps): 0
  Subjects with treatment-emergent serious AE: Nervous system disorders: 0
  Subjects with treatment-emergent serious AE: Respiratory, thoracic and mediastinal disorders: 0
  Subjects with treatment-emergent serious AE: Tonsillar hypertrophy: 0
  Subjects with treatment-emergent serious AE: Uterine leiomyoma: 0
  Subjects with treatment-emergent serious AE: Ventricular dysfunction: 0
50 mg QD, through Week 56
  Acrochordon: number of subjects: 0
  Actinic keratosis: % of subjects: (2.3%)
  Actinic keratosis: number of subjects: 1
  Alopecia: number of subjects: 0
  Asthenia: number of subjects: 0
  Asthma: number of subjects: 0
  Atrioventricular block first degree: number of subjects: 0
  Basal cell carcinoma: % of subjects: (2.3%)
  Basal cell carcinoma: number of subjects: 1
  Blood and lymphatic system disorders: % of subjects: (7.0%)
  Blood and lymphatic system disorders: number of subjects: 3
  Bronchitis chronic: number of subjects: 0
  Bundle branch block right: number of subjects: 0
  Cardiac disorders: % of subjects: (2.3%)
  Cardiac disorders: number of subjects: 1
  Chills: number of subjects: 0
  Cholelithiasis: number of subjects: 0
  Chronic obstructive pulmonary disease: number of subjects: 0
  Coronary artery disease: % of subjects: (2.3%)
  Coronary artery disease: number of subjects: 1
  Cough: % of subjects: (4.7%)
  Cough: number of subjects: 2
  Decreased appetite: number of subjects: 0
  Depression: number of subjects: 0
  Dermal cyst: number of subjects: 0
  Dermatitis acneiform: number of subjects: 0
  Dermatitis contact: % of subjects: (2.3%)
  Dermatitis contact: number of subjects: 1
  Diabetes mellitus: number of subjects: 0
  Diffuse alopecia: number of subjects: 0
  Dysuria: number of subjects: 0
  Ear and labyrinth disorders: number of subjects: 0
  Endocrine disorders: number of subjects: 0
  Eye disorders: number of subjects: 0
  Eyelid skin dryness: number of subjects: 0
  Fatigue: % of subjects: (2.3%)
  Fatigue: number of subjects: 1
  General disorders and administration site conditions: % of subjects: (7.0%)
  General disorders and administration site conditions: number of subjects: 3
  Goiter: number of subjects: 0
  Haemochromatosis: number of subjects: 0
  Hand dermatitis: number of subjects: 0
  Hematuria: % of subjects: (2.3%)
  Hematuria: number of subjects: 1
  Hepatobiliary disorders: number of subjects: 0
  Hypercholesterolemia: number of subjects: 0
  Hyperglycemia: % of subjects: (2.3%)
  Hyperglycemia: number of subjects: 1
  Hyperlipidemia: number of subjects: 0
  Hypertension: % of subjects: (2.3%)
  Hypertension: number of subjects: 1
  Hypertransaminasemia: number of subjects: 0
  Hypertriglyceridemia: number of subjects: 0
  Hypoacusis: number of subjects: 0
  Immune system disorders: % of subjects: (2.3%)
  Immune system disorders: number of subjects: 1
  Influenza like illness: number of subjects: 0
  Insomnia: number of subjects: 0
  Intertrigo: number of subjects: 0
  Ketonuria: number of subjects: 0
  Leukocyturia: number of subjects: 0
  Leukopenia: % of subjects: (2.3%)
  Leukopenia: number of subjects: 1
  Libido decreased: number of subjects: 0
  Liver disorder: number of subjects: 0
  Lymphopenia: % of subjects: (4.7%)
  Lymphopenia: number of subjects: 2
  Menopause: % of subjects: (2.3%)
  Menopause: number of subjects: 1
  Metabolism and nutrition disorders: % of subjects: (2.3%)
  Metabolism and nutrition disorders: number of subjects: 1
  Neoplasms benign, malignant and unspecified (incl cysts and polyps): % of subjects: (4.7%)
  Neoplasms benign, malignant and unspecified (incl cysts and polyps): number of subjects: 2
  Nephrolithiasis: number of subjects: 0
  Neutropenia: % of subjects: (4.7%)
  Neutropenia: number of subjects: 2
  Night sweats: % of subjects: (2.3%)
  Night sweats: number of subjects: 1
  Non-cardiac chest pain: % of subjects: (2.3%)
  Non-cardiac chest pain: number of subjects: 1
  Ocular cyst: number of subjects: 0
  Oedema peripheral: % of subjects: (2.3%)
  Oedema peripheral: number of subjects: 1
  Oropharyngeal pain: number of subjects: 0
  Procedural pain: number of subjects: 0
  Productive cough: number of subjects: 0
  Proteinuria: number of subjects: 0
  Pruritus: % of subjects: (2.3%)
  Pruritus: number of subjects: 1
  Psoriasis: number of subjects: 0
  Psychiatric disorders: number of subjects: 0
  Pyrexia: number of subjects: 0
  Rash pruritic: number of subjects: 0
  Renal and urinary disorders: % of subjects: (2.3%)
  Renal and urinary disorders: number of subjects: 1
  Renal mass: number of subjects: 0
  Respiratory, thoracic and mediastinal disorders: % of subjects: (4.7%)
  Respiratory, thoracic and mediastinal disorders: number of subjects: 2
  Retinal vein occlusion: number of subjects: 0
  Rhinorrhoea: number of subjects: 0
  Seasonal allergy: % of subjects: (2.3%)
  Seasonal allergy: number of subjects: 1
  Skin and subcutaneous tissue disorders: % of subjects: (9.3%)
  Skin and subcutaneous tissue disorders: number of subjects: 4
  Skin laceration: number of subjects: 0
  Skin papilloma: % of subjects: (2.3%)
  Skin papilloma: number of subjects: 1
  Social circumstances: % of subjects: (2.3%)
  Social circumstances: number of subjects: 1
  Steatohepatitis: number of subjects: 0
  Subjects with AE leading to discontinuation: Abdominal discomfort: 0
  Subjects with AE leading to discontinuation: Alanine aminotransferase increased: 0
  Subjects with AE leading to discontinuation: Aspartate aminotransferase increased: 0
  Subjects with AE leading to discontinuation: Asthenia: 0
  Subjects with AE leading to discontinuation: Chills: 0
  Subjects with AE leading to discontinuation: Ear and labyrinth disorders: 0
  Subjects with AE leading to discontinuation: Gamma-glutamyltransferase increased: 0
  Subjects with AE leading to discontinuation: General disorders and administration site conditions: 0
  Subjects with AE leading to discontinuation: Headache: 0
  Subjects with AE leading to discontinuation: Insomnia: 0
  Subjects with AE leading to discontinuation: Investigations: 0
  Subjects with AE leading to discontinuation: Nervous system disorders: 0
  Subjects with AE leading to discontinuation: Proctalgia: 0
  Subjects with AE leading to discontinuation: Psoriasis: 0
  Subjects with AE leading to discontinuation: Psychiatric disorders: 0
  Subjects with AE leading to discontinuation: Skin and subcutaneous tissue disorders: 0
  Subjects with AE leading to discontinuation: Suicide attempt: 0
  Subjects with AE leading to discontinuation: Transaminases increased: 0
  Subjects with AE leading to discontinuation: Vertigo: 0
  Subjects with AE leading to discontinuation: Vomiting: 0
  Subjects with AE leading to discontinuation: Weight increased: 0
  Subjects with COVID-19 associated AE: SARS-CoV-2 test positive: 0
  Subjects with treatment-emergent serious AE: COVID-19: 0
  Subjects with treatment-emergent serious AE: Cerebrovascular accident: 0
  Subjects with treatment-emergent serious AE: Diverticulitis: 0
  Subjects with treatment-emergent serious AE: Injury, poisoning and procedural complications: 0
  Subjects with treatment-emergent serious AE: Intervertebral disc protrusion: 0
  Subjects with treatment-emergent serious AE: Ligament injury: 0
  Subjects with treatment-emergent serious AE: Neoplasms benign, malignant and unspecified (incl cysts and polyps): 0
  Subjects with treatment-emergent serious AE: Nervous system disorders: 0
  Subjects with treatment-emergent serious AE: Psychiatric disorders: 0
  Subjects with treatment-emergent serious AE: Respiratory, thoracic and mediastinal disorders: 0
  Subjects with treatment-emergent serious AE: Suicide attempt: 0
  Subjects with treatment-emergent serious AE: Tonsillar hypertrophy: 0
  Subjects with treatment-emergent serious AE: Uterine leiomyoma: 0
  Subjects with treatment-emergent serious AE: Ventricular dysfunction: 0
  Suicide attempt: number of subjects: 0
  Sunburn: number of subjects: 0
  Thrombocytopenia: number of subjects: 0
  Thrombocytosis: number of subjects: 0
  Tonsillar hypertrophy: number of subjects: 0
  Tooth fracture: number of subjects: 0
  Type 2 diabetes mellitus: number of subjects: 0
  Urinary tract disorder: number of subjects: 0
  Uterine leiomyoma: number of subjects: 0
  Vascular disorders: % of subjects: (2.3%)
  Vascular disorders: number of subjects: 1
  Ventricular dysfunction: number of subjects: 0
  Vertigo: number of subjects: 0
  Vitamin D deficiency: number of subjects: 0
[1]
  Number of subjects with treatment-emergent AE: Cholelithiasis: 0
  Number of subjects with treatment-emergent AE: Ear and labyrinth disorders: 0
  Number of subjects with treatment-emergent AE: Endocrine disorders: 0
  Number of subjects with treatment-emergent AE: Eye disorders: 0
  Number of subjects with treatment-emergent AE: Eyelid skin dryness: 0
  Number of subjects with treatment-emergent AE: Goiter: 0
  Number of subjects with treatment-emergent AE: Hepatobiliary disorders: 0
  Number of subjects with treatment-emergent AE: Hypertransaminasemia: 0
  Number of subjects with treatment-emergent AE: Immune system disorders: 1
  Number of subjects with treatment-emergent AE: Insomnia: 0
  Number of subjects with treatment-emergent AE: Ocular cyst: 0
  Number of subjects with treatment-emergent AE: Psychiatric disorders: 0
  Number of subjects with treatment-emergent AE: Retinal vein occlusion: 0
  Number of subjects with treatment-emergent AE: Seasonal allergy: 1
  Number of subjects with treatment-emergent AE: Vertigo: 0
  Subjects with treatment-emergent AE: Immune system disorders (%): (2.6%)
  Subjects with treatment-emergent AE: Seasonal allergy (%): (2.6%)
[2]
  Subjects who discontinued study agent because of 1 or more adverse events: 0
  Subjects with 1 or more Serious Infections and infestations: 0
  Subjects with adverse event: Arthralgia: 0
  Subjects with adverse event: Bronchitis: 0
  Subjects with adverse event: Headache: 0
  Subjects with adverse event: Meniscus injury: 0
  Subjects with adverse event: Sinusitis: 0
  Subjects with adverse event: Vomiting: 0
  Subjects with serious adverse event: Cerebrovascular accident: 0
  Subjects with serious adverse event: Coronary artery disease: 0
  Subjects with serious adverse event: Diverticulitis: 0
  Subjects with serious adverse event: Foot deformity: 0
  Subjects with serious adverse event: Intervertebral disc protrusion: 0
  Subjects with serious adverse event: Ligament injury: 0
  Subjects with serious adverse event: Non-cardiac chest pain: 0
  Subjects with serious adverse event: Tonsillar hypertrophy: 0
  Subjects with serious adverse event: Ventricular dysfunction: 0
100 mg BID, Week 16-56
  Subjects with 1 or more treatment-emergent adverse events leading to discontinuation of study agent: 0
  Subjects with AE leading to discontinuation: Alanine aminotransferase increased: 0
  Subjects with AE leading to discontinuation: Aspartate aminotransferase increased: 0
  Subjects with AE leading to discontinuation: Asthenia: 0
  Subjects with AE leading to discontinuation: Chills: 0
  Subjects with AE leading to discontinuation: Ear and labyrinth disorders: 0
  Subjects with AE leading to discontinuation: Gamma-glutamyltransferase increased: 0
  Subjects with AE leading to discontinuation: Gastrointestinal disorders: 0
  Subjects with AE leading to discontinuation: General disorders and administration site conditions: 0
  Subjects with AE leading to discontinuation: Headache: 0
  Subjects with AE leading to discontinuation: Insomnia: 0
  Subjects with AE leading to discontinuation: Investigations: 0
  Subjects with AE leading to discontinuation: Nervous system disorders: 0
  Subjects with AE leading to discontinuation: Proctalgia: 0
  Subjects with AE leading to discontinuation: Psoriasis: 0
  Subjects with AE leading to discontinuation: Psychiatric disorders: 0
  Subjects with AE leading to discontinuation: Skin and subcutaneous tissue disorders: 0
  Subjects with AE leading to discontinuation: Vertigo: 0
  Subjects with AE leading to discontinuation: Vomiting: 0
  Subjects with treatment-emergent AE: Arthralgia: 0
  Subjects with treatment-emergent AE: Bronchitis: 0
  Subjects with treatment-emergent AE: Gastrointestinal disorders: 0
